These results are taken from patent US11230525B2, “Organic sulfur compound, method for preparing same, and pharmaceutical composition for preventing or treating cancer or an inflammatory disease, containing same as active ingredient” (SOOKMYUNG WOMENS UNIVERSITY INDUSTRY-ACADEMIC COOPERATION …, priority 2016, dated 2022).

In general, GI50 refers to the concentration at which growth is held to half of that of the control.

One assay deals with T1, HDAC 8 (Homo sapiens, UniProt Q9BY41).
T1 sequence (Q9BY41 1-377): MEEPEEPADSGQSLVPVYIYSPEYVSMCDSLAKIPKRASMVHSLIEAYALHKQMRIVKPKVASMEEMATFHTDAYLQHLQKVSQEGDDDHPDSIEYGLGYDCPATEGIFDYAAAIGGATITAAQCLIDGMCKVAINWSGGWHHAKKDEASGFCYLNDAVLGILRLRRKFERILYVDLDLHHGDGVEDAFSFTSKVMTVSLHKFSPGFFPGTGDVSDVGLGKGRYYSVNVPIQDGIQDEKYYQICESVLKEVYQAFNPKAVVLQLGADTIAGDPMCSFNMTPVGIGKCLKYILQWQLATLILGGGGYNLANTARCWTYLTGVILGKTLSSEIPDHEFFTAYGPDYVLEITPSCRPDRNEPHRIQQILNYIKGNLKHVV
In words: HDAC enzyme fluorescence assay, HDAC 8. The settings on record: (HDAC inhibitory activity of example compound/HDAC inhibitory activity of SAHA) × 100. The assay is classed as biochemical. On the set-up: Inhibitory activity (%) HDAC 8: concentration or dose not given beside the values. As for the experimental part: Particularly, HDAC enzyme analysis was performed based on a uniform fluorescence emission assay. First, the compounds of examples of the present invention or comparative example 1 were diluted at different concentrations, which were treated to the analysis buffer containing 25 mM HEPES (pH 8.0), 137 mM NaCl, 1 mM MgCl2 and 2.7 mM KCL, followed by culture of the recombinant HDAC enzyme. 10 minutes later, Boc-Lys(acetyl)-AMC, the fluorescence inducing substrate, was added thereto, followed by further culture at 37° C. At this time, the concentration of the fluorescence inducing substrate and the culture time were adjusted according to the isotypes of the HDAC enzyme. The reaction was terminated by treating trypsin at room temperature for 20 minutes. The fluorescence intensity was measured using a fluorescence analyzer at an excitation wavelength of 380 nm and an emission wavelength of 460 nm, respectively. The inhibition rate was calculated from the measured fluorescence intensity of each well with comparing to that of the control well. IC50 of the compound was calculated by analyzing the dose-reaction inhibition curve.
The HDAC 8 inhibitory activity was presented as percentage of relative activity by the inhibitory activity of SAHA (Vorinostat) used as a reference compound.

The test system of assay [1] is prostate cancer cell line (PC-3). In words: Cancer proliferation inhibitory activity (SRB, GI50), PC-3. Type of assay: cell-based. The settings on record: Homo sapiens, 48 hours. From the text: (§1) Particularly, the cancer proliferation inhibitory activity of the compounds of comparative examples (Ajoene and the compounds isosteric to Ajoene wherein R1 is allyl or benzyl) and the compounds of examples of the present invention (the compounds not isosteric to Ajoene wherein R^1 is phenyl) was investigated in human cancer cell lines (renal cancer cell line (ACHN), breast cancer cell line (MDA-MB-231), colorectal cancer cell line (HCT-15), prostate cancer cell line (PC-3), gastric cancer cell line (NUGC-3) and lung cancer cell line (NCl-H23)).
(§2) At this time, the cancer cell lines (renal cancer cell line (ACHN), breast cancer cell line (MDA-MB-231), colorectal cancer cell line (HCT-15), prostate cancer cell line (PC-3), gastric cancer cell line (NUGC-3) and lung cancer cell line (NCl-H23)) above were purchased from American Type Culture Collection (Manassas, Va., USA). Cells were cultured in RPMI 1640 supplemented with 10% fetal bovine serum, which were maintained 37° C. under 5% CO2 wet atmosphere. The cells were distributed in a 96-well plate, which was not treated (treated only with 0.1% DMSO) or treated with the compounds of examples of the present (0.1 μM to 10 μM). 48 hours later, the cells were fixed in 50% trichloroacetic acid, followed by staining with 1% acetic acid containing 0.4% sulphorodamine B dissolved therein. The non-conjugated dye was removed by washing with 1% acetic acid, and the protein conjugated dye was extracted with 10 mM Tris base (pH 10.5). Then, OD540 was measured with VersaMax microplate reader (Molecular devices, Sunnyvale, Calif., USA). GI50 was calculated by using GraphPad Prism software (GraphPad Software, Inc., San Diego, Calif., USA).
(§3) Based on the results obtained in experimental example 1-1 above, the derivatives wherein R^1 is phenyl were additionally synthesized. The cancer proliferation inhibitory activity of the derivatives was evaluated by the same manner as described in experimental example 1-1.

Assay [2] relates to renal cancer cell line (ACHN). In words: Cancer proliferation inhibitory activity (SRB, GI50), ACHN. Type of assay: cell-based. Particulars: Homo sapiens, 48 hours.
Source text: as §1, §2, §3

Assay [3] relates to lung cancer cell line (NCl-H23). The assay can be described thus: Cancer proliferation inhibitory activity (SRB, GI50), NCI-H23. Type of assay: cell-based. Particulars: Homo sapiens, 48 hours.
Source text: as §1, §2, §3

The subject of assay [4] is gastric cancer cell line (NUGC-3). In words: Cancer proliferation inhibitory activity (SRB, GI50), NUGC-3. The settings on record: Homo sapiens, 48 hours. The assay is classed as cell-based.
Source text: as §1, §2, §3

For assay [5], the system named is colorectal cancer cell line (HCT-15). In words: Cancer proliferation inhibitory activity (SRB, GI50), HCT-15. The assay is classed as cell-based. The settings on record: Homo sapiens, 48 hours.
Source text: as §1, §2, §3

The subject of assay [6] is breast cancer cell line (MDA-MB-231). In words: Cancer proliferation inhibitory activity (SRB, GI50), MDA-MB-231. Type of assay: cell-based. The settings on record: Homo sapiens, 48 hours.
Source text: as §1, §2, §3

`CCCSS/C=C\C[S+]([O-])c1ccccc1` (stereo not shown) [Example 4, (Z)-1-(3-(phenylsulfinyl)prop-1-enyl)-2-propyldisulfane]: the “Inhibitory activity (%) HDAC 8” value at HDAC 8 was 115.2%.
Regarding `C=CCSS/C=C\C[S+]([O-])Cc1ccccc1` (stereo not shown) [Comparative Example 4, (Z)-1-allyl-2-(3-(benzylsulfinyl)prop-1-enyl)disulfane, reference compound], the GI50 in assay [1] turned out to be 3.28 µM; in assay [2], 5.32 µM; in assay [3] it was 5.98 µM; in assay [4], 8.07 µM; in assay [5], 5.93 µM.
With `C=CCSS/C=C\C[S+]([O-])c1ccccc1` (stereo not shown) [Example 2, (Z)-1-allyl-2-(3-(phenylsulfinyl)prop-1-enyl)disulfane], on HDAC 8, the “Inhibitory activity (%) HDAC 8” value worked out at 37.5%.
Same read-out and setting: in the case of `COc1ccc([S+]([O-])C/C=C/SSCc2ccccc2)cc1` (stereo not shown) [Example 31, (E)-1-benzyl-2-(3-(4-methoxyphenylsulfinyl)prop-1-enyl)disulfane] it was 74.6%.
`CCCSS/C=C/C[S+]([O-])Cc1ccccc1` (stereo not shown) [Comparative Example 6, (E)-1-(3-(benzylsulfinyl)prop-1-enyl)-2-propyldisulfane, reference compound]: the 50% growth inhibitory concentration (GI50) in assay [3] stood at 2.93 µM; in assay [4] it was 3.27 µM; in assay [6] it was 2.19 µM; in assay [5], 3.03 µM.
Regarding `C=CCSS/C=C\C[S+]([O-])c1cccc(OC)c1` (stereo not shown) [Example 16, (Z)-1-allyl-2-(3-(3-methoxyphenylsulfinyl)prop-1-enyl)disulfane], on HDAC 8, the “Inhibitory activity (%) HDAC 8” value is on record as 105.3%.
On the same count and under the same terms, in the case of `COc1cccc([S+]([O-])C/C=C/SSCc2ccc(Cl)c(Cl)c2)c1` (stereo not shown) [Example 25, (E)-1-(3,4-dichlorobenzyl)-2-(3-(3-methoxyphenylsulfinyl)prop-1-enyl)disulfane] it was 138.9%.
`C=CC[S+]([O-])C/C=C\SSCc1ccccc1` (stereo not shown) [Comparative Example 3, (Z)-1-(3-(allylsulfinyl)prop-1-enyl)-2-benzyldisulfane, reference compound]: the concentration for 50% growth inhibition (GI50) in assay [1] stood at 2.31 µM; in assay [2] it was 3.26 µM; in assay [3], 3.59 µM; in assay [4] it was 2.05 µM; in assay [6], 4.64 µM; in assay [5], 4.96 µM.
For the compound `[O-][S+](C/C=C/SSCc1ccccc1)Cc1ccccc1` (stereo not shown) [Comparative Example 7, (E)-1-benzyl-2-(3-(benzylsulfinyl)prop-1-enyl)disulfane, reference compound], the 50% growth inhibitory concentration (GI50) in assay [1] was 3.88 µM; in assay [2], 4.22 µM; in assay [3], 6.41 µM.
On to `C=CCSS/C=C/C[S+]([O-])c1ccccc1` (stereo not shown) [Example 1, (E)-1-allyl-2-(3-(phenylsulfinyl)prop-1-enyl)disulfane], for which, on HDAC 8, the “Inhibitory activity (%) HDAC 8” value amounted to 32.1%.
Regarding `[O-][S+](C/C=C/SSCc1ccc(F)cc1)Cc1ccccc1` (stereo not shown) [Comparative Example 8, (E)-1-(3-(benzylsulfinyl)prop-1-enyl)-2-(4-fluorobenzyl)disulfane, reference compound], the 50% growth inhibitory concentration (GI50) in assay [1] is 2.04 µM; in assay [2] it was 4.1 µM; in assay [3] it was 2.83 µM; in assay [5], 2.27 µM.
Turning to `C=CCSS/C=C/C[S+]([O-])Cc1ccccc1` (stereo not shown) [Comparative Example 5, (E)-1-allyl-2-(3-(benzylsulfinyl)prop-1-enyl)disulfane, reference compound], the GI50 in assay [1] turned out to be 6.85 µM; in assay [2], 4.43 µM; in assay [3], 4.41 µM; in assay [4] it was 10.3 µM; in assay [6], 5.45 µM; in assay [5], 9.1 µM.
Take `[O-][S+](C/C=C\SSCc1ccc(F)cc1)Cc1ccccc1` (stereo not shown) [Comparative Example 9, (Z)-1-(3-(benzylsulfinyl)prop-1-enyl)-2-(4-fluorobenzyl)disulfane, reference compound]: the figures for the GI50 in assay [2] and in assay [6] were 2.32 µM and 3.24 µM, respectively.
`[O-][S+](C/C=C\SSCc1ccc(F)cc1)c1ccccc1` (stereo not shown) [Example 8, (Z)-1-(4-fluorobenzyl)-2-(3-(phenylsulfinyl)prop-1-enyl)disulfane]: the “Inhibitory activity (%) HDAC 8” value on HDAC 8 came out at 24.9%.
